Test [1] addresses T1, NOPr (Homo sapiens, UniProt P41146). Nature of the test: TR-FRET competition binding with tracers 13g and 13h, Lumi4-Tb SNAP-NOPr membranes. To be noted: 140 mM Na+, 100 μM Gpp(NH)p, 2 h 37 °C.
In test [2] the target is T1, NOPr. Nature of the test: TR-FRET competition binding with tracer 13h in presence and absence of Na+ and Gpp(NH)p. (Time-resolved FRET reads energy transfer from a long-lived donor to a nearby acceptor.)
The target in a further test is CHOhNOPr. Particulars: ref Spagnolo et al.,1; cited from earlier work.
Another test addresses CHOhMOPr. Further details: method as in Spagnolo et al.,1. Particulars: ref Spagnolo et al.,1; cited from earlier work.
The next test addresses CHOhDOPr. On the set-up: method as in Spagnolo et al.,1. To be noted: ref Spagnolo et al.,1; cited from earlier work.
For the next test, the target named is CHOhKOPr. Further details: method as in Spagnolo et al.,1. To be noted: ref Spagnolo et al.,1; cited from earlier work.
For test [3], the system named is NOPr. Further details: method as in Spagnolo et al.,1. To be noted: ref Spagnolo et al.,1, cited from earlier work.
Test [4] concerns the target T1, NOPr. Nature of the test: BRET G-protein activation (GPA) assay, Gαi2, agonist and antagonist mode, Flp-In-NOPr-CHO cells. In kind it is cell-based. For orientation: In BRET a luciferase serves as donor, and the signal depends on an acceptor being close.
Test [5] deals with NOPr. Particulars: Table 4; literature values, reference number not given; read-out: literature K i; cited from earlier work.
In another test the target is MOPr. To be noted: literature value, reference number not given; read-out: MOPr K i; cited from earlier work.
The target in a further test is KOPr. Particulars: literature value, reference number not given; read-out: KOPr K i; cited from earlier work.
A further test concerns the target DOPr. Particulars: literature value, reference number not given; read-out: DOPr K i; cited from earlier work.
In another test the target is T2, SNAP-NOPr (Homo sapiens, UniProt P41146).
T2 construct: expressed in transfected cells
T2 sequence (P41146 whole entry): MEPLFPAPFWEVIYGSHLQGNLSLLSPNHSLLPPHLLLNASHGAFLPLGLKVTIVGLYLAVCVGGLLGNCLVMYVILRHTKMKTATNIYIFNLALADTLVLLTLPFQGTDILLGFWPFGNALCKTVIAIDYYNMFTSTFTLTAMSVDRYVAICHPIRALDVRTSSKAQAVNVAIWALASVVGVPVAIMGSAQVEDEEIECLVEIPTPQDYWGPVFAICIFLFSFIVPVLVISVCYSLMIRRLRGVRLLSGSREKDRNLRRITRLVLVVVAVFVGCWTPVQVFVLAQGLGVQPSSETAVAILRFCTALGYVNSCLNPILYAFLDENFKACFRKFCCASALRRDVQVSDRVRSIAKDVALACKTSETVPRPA
Put plainly: Confocal imaging of fluorescent ligand binding, live FlpIn CHO cells stably expressing SNAP-NOPr. In kind it is cell-based. Particulars: 1 μM, 30 min at 37 °C, live cells. As to the method: To first assess whether the library of fluorescent ligands (13a-h and 14h) can specifically label the NOPr, single time point confocal images of live FlpIn CHO cells stably expressing SNAP-NOPr were captured. Cells were incubated with fluorescent ligands 13a-h and 14h (1 μM) to assess the fluorescent ligand binding.
3 Single time point confocal images of live FlpIn CHO cells stably expressing SNAP-NOPr. Cells were labeled with SNAP-AF488 (cyan) to visualize SNAP-NOPr expression (a–d) and incubated for 30 min at 37 °C with fluorescent ligands 13e–h (1 μM) (magenta) to visualize fluorescent ligand binding (e-h).
For all experiments, live cell single time point confocal images were captured using a Zeiss Cell Discoverer 7 LSM 900 high-content automated confocal microscope. Two images per well were captured using a 10× objective and the Cy5 channel (650 λex, 673 λem), the AF488 (495λex, 520 λem) channel, and the CFP (433λex, 475 λem) channel. All cells were imaged in an imaging buffer containing (2 mM sodium pyruvate, 145 mM NaCl, 10 mM D-glucose, 5 mM KCl, 1 mM MgSO4·7H2O, 10 mM HEPES, 1.3 mM CaCl2 dihydrate, and 1.5 mM NaHCO3).
Stably expressing SNAP-NOPr FlpIn-CHO cells suspended in DMEM (D6421) (100 μL) were seeded (10,000 cells/well) into 96-well poly-D-lysine (PDL)-coated Greiner black polyester plates. Cells were incubated for 48 h at 37 °C and 5% CO2 prior to imaging.
Before measurement, the media were removed, and cells were washed with 90 μL of imaging buffer. Cells were then incubated with SNAP-AF488 (New England Biolabs) (0.5 μg·mL^–1) in imaging buffer for 30 min at 37 °C. After incubation, the SNAP-AF488 solution was aspirated and cells were rinsed twice with imaging buffer (90 μL). […] Cells were incubated for 30 min at 37 °C and 5% CO2 before the images were captured.

Test [6] deals with T1, NOPr. Put plainly: TR-FRET equilibrium saturation binding, Lumi4Tb-SNAP-NOPr CHO membranes.
Test [7] deals with T1, NOPr. Nature of the test: TR-FRET kinetic binding, Lumi4-Tb-SNAP-NOPr-CHO membranes. To be noted: for Kd: kinetically derived, 15 min, n = 3.
Where [8] appears, read: IC50, antagonist mode, inhibition of EC80 concentration of N/OFQ, n = 4 in duplicate.
Setting [9] is: pIC50 ± SEM, antagonist mode, inhibition of EC80 concentration of N/OFQ, n = 4 in duplicate.

Data on five compounds can be found in publication PMC12833874 (Journal of Medicinal Chemistry, 2025).

Where two headings read alike, the source gives them in different places.

T1 sequence (P41146 whole entry): as above

Consider `CC(C)C1CCC(N2CCC3(CC2)C(=O)N(CCNS(N)(=O)=O)Cc2ccccc23)CC1` (centres unmarked) [AT-121], for which the Ki at NOPr [1] (read-out: 13h K i ± SEM, tracer 13h (5 nM; 25 nM elsewhere in the source)) was 11 ± 10 nM; on NOPr [1] (tracer 13g (20 nM; 5 nM elsewhere in the source), read-out: 13g K i ± SEM), 17 ± 3 nM.

Consider `Cc1cccc2c1CC[C@H](CN1CCC(c3c(Cl)cccc3Cl)CC1)C[C@@H]2O` [SB-612111, (−)-cis-1-Methyl-7-[[4-(2,6-dichlorophenyl)piperidin-1-yl]methyl]-6,7,8,9-tetrahydro-5 H-benzocyclohepten-5-ol], for which the “change in apparent affinity (K i), Na+ and Gpp(NH)p vs NMDG condition” value at NOPr [2] is recorded as about 1.3 fold. At CHOhNOPr, the Ki is 0.16 nM and the “pKi ± SEM CHOhNOPr” value was 9.80 ± 0.08. Also, on CHOhMOPr, the Ki is under 1000 nM and the “pKi CHOhMOPr” value is reported as under 6.0. Further, on CHOhDOPr, the Ki is under 5000 nM and the “pKi CHOhDOPr” value was under 5.3. Also, on CHOhKOPr, the Ki was under 1000 nM and the “pKi CHOhKOPr” value is listed as under 6.0. Also, in the test with NOPr [3], the “pKB GTPγ[35S]” value is given as […]. In the test with NOPr [3] (read-out: KB GTPγ[35S]), the Kb was […].

On to `O=C(NCCCN1CCC2(CC1)OCc1ccccc12)[C@H]1CCCN1Cc1ccccc1` [C24, (2R)-1-(phenylmethyl)-N-(3-spiro[1H-2-benzofuran-3,4′-piperidine]-1′-ylpropyl)pyrrolidine-2-carboxamide], for which the IC50 (as a rule, the concentration needed to halve the response being measured) on NOPr [4] (setting [8]) was 2.7 nM; on NOPr [4] (setting [9]) it was 2.51 nM. Further, the Ki was 0.06 ± 0.02 nM at NOPr [1] (13g K i ± SEM (nM), tracer 13g (20 nM; 5 nM elsewhere in the source)); 0.09 ± 0.0008 nM on NOPr [1] (13h K i ± SEM (nM), tracer 13h (5 nM; 25 nM elsewhere in the source)); 0.24 nM on NOPr [5]; over 2500 nM at MOPr; over 2500 nM at KOPr; over 2500 nM on DOPr.

Take “N/OFQ: endogenous 17-amino acid neuropeptide agonist nociceptin/orphanin FQ, full NOPr agonist”: at NOPr [5], the Ki was 0.08 ± 0.03 nM.

Regarding `CN1/C(=C/C=C/C=C/C2=[N+](CCCCCC(=O)NCCOc3cccc(CN4CCC[C@@H]4C(=O)NCCCN4CCC5(CC4)OCc4ccccc45)c3)c3ccc(S(=O)(=O)[O-])cc3C2(C)C)C(C)(C)c2cc(S(=O)(=O)[O-])ccc21.[K+]` [13g, Potassium 1-(6-((2-(3-(((R)-2-((3-(3H-Spiro[isobenzofuran-1,4′-piperidin]-1′-yl)propyl)carbamoyl)pyrrolidin-1-yl)methyl)phenoxy)ethyl)amino)-6-oxohexyl)-3,3-dimethyl-2-((1E,3E)-5-((E)-1,3,3-trimethyl-5-sulfonatoindolin-2-ylidene)penta-1,3-dien-1-yl)-3H-indol-1-ium-5-sulfonate], the “reduction in inhibitory potency from N-Boc congener to fluorescent ligand” value at NOPr [4] (11g to 13g, 11h to 13h and 14h) is given as at least 5 fold. Also, the IC50 on NOPr [4] (setting [8]) was 110 nM; on NOPr [4] (NOP IC50 (nM), supplementary csv, GPA assay antagonist mode), 109 nM; on NOPr [4] (NOP pIC50 ± SEM, supplementary csv, GPA assay antagonist mode), 110 nM; at NOPr [4] (setting [9]) it was 100 nM. Further, the “fluorescent ligand binding (confocal images)” value at SNAP-NOPr is reported as “more pronounced binding”. Also, at NOPr [6] (400 nM), the “binding behaviour at the highest concentration tested” value was “saturable binding with minimal nonspecific binding”. Moreover, the Kd on NOPr [6] (2 h, 37 °C, n = 3, read-out: saturation KD (converted)) was 19.1 nM; at NOPr [6] (2 h, 37 °C, n = 3, read-out: saturation pKD (converted)), 19.1 nM; at NOPr [6] (Table 3, equilibrium saturation binding, read-out: KD NOPr (converted)), 19.1 nM; at NOPr [6] (Table 3, equilibrium saturation binding, read-out: pKD ± SEM NOPr (converted)), 19.1 nM; on NOPr [7] (read-out: kinetic KD (converted)), 35.7 nM; at NOPr [7] (read-out: kinetic pKD (converted)) it was 35.5 nM. Also, the “selectivity over the other opioid receptors” value at NOPr [6] (NOPr vs MOPr, DOPr, KOPr) was over 100 fold. Further, the koff – broadly, a measure of how fast the partners let go of each other – on NOPr [7] (0–50 nM, over 15 min) is 0.00167 s⁻¹. Further, the kon (as a rule, a measure of how fast the partners come together) at NOPr [7] (0–50 nM, over 15 min) is 51700 M⁻¹ s⁻¹.
